Experimental data as given in ChEMBL document CHEMBL1201862, “PubChem BioAssay data set” (2004).
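Values below derive from 48-hour exposures of cells grown in 96-well plates, with endpoints linearly interpolated between the two concentrations bracketing the appropriate inhibition level. At the GI50, growth is halved.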 The source made the active and inactive calls. Rule as the data show it: active = GI50 up to about 1.1 µM and inactive = higher.

What was measured:
Assay in all cases: NCI-60 cell line screen, 48 h
SR = tested on: SR
A549 = tested on: A549
HCT-15 = tested on: HCT-15
HCC 2998 = tested on: HCC 2998
HOP-92 = tested on: HOP-92
SF-295 = tested on: SF-295
HL-60 = tested on: HL-60
SK-OV-3 = tested on: SK-OV-3
MDA-MB-435 = tested on: MDA-MB-435
RXF 393 = tested on: RXF 393
EKVX = tested on: EKVX
IGROV-1 = tested on: IGROV-1
LOX IMVI = tested on: LOX IMVI
NCI-H226 = tested on: NCI-H226
NCI-H522 = tested on: NCI-H522
SW-620 = tested on: SW-620
M19-MEL = tested on: M19-MEL
SNB-78 = tested on: SNB-78
DMS-114 = tested on: DMS-114
XF498 = tested on: XF498

Compound	GI50 (SR)	GI50 (A549)	GI50 (HCT-15) [µM]	GI50 (HCC 2998)	GI50 (HOP-92)	GI50 (SF-295)	GI50 (HL-60)	GI50 (SK-OV-3)	GI50 (MDA-MB-435)	GI50 (RXF 393)	GI50 (EKVX)	GI50 (IGROV-1)	GI50 (LOX IMVI)	GI50 (NCI-H226)	GI50 (NCI-H522)	GI50 (SW-620)	GI50 (M19-MEL)	GI50 (SNB-78)	GI50 (DMS-114)	GI50 (XF498)
O=C(O)CCC1(c2ccccc2)NC(=O)NC1=O (stereo not given)	> 100 µM (inactive)	> 100 µM (inactive)	> 100	> 100 µM (inactive)	> 100 µM (inactive)	> 100 µM (inactive)	> 100 µM (inactive)	> 100 µM (inactive)	> 100 µM (inactive)	> 100 µM (inactive)	> 100 µM (inactive)	> 100 µM (inactive)	> 100 µM (inactive)	> 100 µM (inactive)	> 100 µM (inactive)	> 100 µM (inactive)				
CCOC(=O)/C(C#N)=C(N)/C(=N\Nc1cccc(C(F)(F)F)c1)C(=O)OCC	> 100 µM (inactive)	> 100 µM (inactive)	> 100	> 100 µM (inactive)	> 100 µM (inactive)	> 100 µM (inactive)	75.9 µM (inactive)	> 100 µM (inactive)			> 100 µM (inactive)	> 100 µM (inactive)	> 100 µM (inactive)	> 100 µM (inactive)	> 100 µM (inactive)	> 100 µM (inactive)	> 100 µM (inactive)	> 100 µM (inactive)	> 100 µM (inactive)	
CN1CCN([C@H]2C[C@H]3[C@@H]4CC=C5C[C@@H](O)CC[C@]5(C)[C@H]4CC[C@]3(C)[C@H]2O)CC1	25.8 µM (inactive)	> 100 µM (inactive)	> 42.3	44.2 µM (inactive)	> 100 µM (inactive)	> 78.3 µM (inactive)	16.8 µM (inactive)	> 100 µM (inactive)	16.9 µM (inactive)	16.9 µM (inactive)	> 100 µM (inactive)	> 90.8 µM (inactive)	> 43.4 µM (inactive)	> 100 µM (inactive)	> 100 µM (inactive)	20.7 µM (inactive)				
CC(=O)Nc1ccc(-c2nnc(SCC(=O)Nc3ccccc3)o2)cc1	> 100 µM (inactive)	> 100 µM (inactive)	92		> 100 µM (inactive)	77.6 µM (inactive)	89.1 µM (inactive)	> 100 µM (inactive)		89.9 µM (inactive)		47.6 µM (inactive)	33.5 µM (inactive)	82.4 µM (inactive)	60.3 µM (inactive)	> 100 µM (inactive)	74.8 µM (inactive)	80 µM (inactive)	39.8 µM (inactive)	
OC1C[C@H](c2ccccc2)C2(C(O)c3ccccc3C2O)[C@@H](c2ccccc2)C1 (stereo not given in full)	11.1 µM (inactive)	> 100 µM (inactive)	> 100	> 100 µM (inactive)	57.4 µM (inactive)	> 100 µM (inactive)	27.9 µM (inactive)	> 100 µM (inactive)	> 100 µM (inactive)	> 100 µM (inactive)	> 100 µM (inactive)	> 100 µM (inactive)	40.2 µM (inactive)	> 100 µM (inactive)	32.4 µM (inactive)	> 100 µM (inactive)				
COC(=O)C1CC2(c3ccccc3)C(=O)c3ccccc3N2O1 (stereo not given)	18.9 µM (inactive)	> 100 µM (inactive)	43.1	> 100 µM (inactive)	49.5 µM (inactive)	> 100 µM (inactive)	28.9 µM (inactive)	> 100 µM (inactive)			> 100 µM (inactive)	> 100 µM (inactive)	26.1 µM (inactive)	> 100 µM (inactive)	15.5 µM (inactive)	39.3 µM (inactive)	64.4 µM (inactive)	> 100 µM (inactive)	46.6 µM (inactive)	
O=Cc1c2ccccc2n2ccc3c4ccccc4[nH]c3c12	8.77 µM (inactive)	> 10 µM (inactive)	> 10	> 10 µM (inactive)	> 10 µM (inactive)	> 10 µM (inactive)	> 10 µM (inactive)	> 10 µM (inactive)	> 10 µM (inactive)	> 10 µM (inactive)	3.57 µM (inactive)	> 10 µM (inactive)	> 10 µM (inactive)	> 10 µM (inactive)	> 10 µM (inactive)	> 10 µM (inactive)				
N#C/C(=C/NC(=S)NCc1ccccc1)C(N)=O	> 100 µM (inactive)	> 100 µM (inactive)	> 100	> 100 µM (inactive)	> 100 µM (inactive)	> 100 µM (inactive)	> 100 µM (inactive)	> 100 µM (inactive)	> 100 µM (inactive)	> 100 µM (inactive)	> 100 µM (inactive)	> 100 µM (inactive)	> 100 µM (inactive)	> 100 µM (inactive)	> 100 µM (inactive)	> 100 µM (inactive)				
CC1CCCP(=O)(c2ccccc2)CC1 (stereo not given)		> 100 µM (inactive)	> 100	> 100 µM (inactive)		> 100 µM (inactive)		> 100 µM (inactive)		> 100 µM (inactive)	> 100 µM (inactive)	> 100 µM (inactive)	> 100 µM (inactive)			> 100 µM (inactive)	> 100 µM (inactive)	> 100 µM (inactive)	> 100 µM (inactive)	
COC(=O)C1(CCCCCBr)CCCCCCCCCCC1=O (stereo not given)	33.5 µM (inactive)	31.3 µM (inactive)	38.8	41.1 µM (inactive)	58.7 µM (inactive)	35.6 µM (inactive)	30 µM (inactive)	> 100 µM (inactive)	37.6 µM (inactive)	23.4 µM (inactive)	78.9 µM (inactive)	30.5 µM (inactive)	27.3 µM (inactive)	23.6 µM (inactive)	20.5 µM (inactive)	72.4 µM (inactive)				
COC1(OC)CCC2(C)OC(c3ccccc3)C1O2 (stereo not given)	> 100 µM (inactive)	> 100 µM (inactive)	> 100	> 100 µM (inactive)		> 100 µM (inactive)	> 100 µM (inactive)	> 100 µM (inactive)		> 100 µM (inactive)	> 100 µM (inactive)	> 100 µM (inactive)	> 100 µM (inactive)	> 100 µM (inactive)	> 100 µM (inactive)	> 100 µM (inactive)			> 100 µM (inactive)	> 100 µM (inactive)
CCCC(=O)Nc1cc(C(=O)N2C[C@H]3C[C@@]34C2=CC(=O)c2[nH]cc(C)c24)n(COC)c1	0.00516 µM (active)	1.51 µM (inactive)	1.31	0.122 µM (active)	0.245 µM (active)	0.735 µM (active)	0.045 µM (active)	1.29 µM (inactive)	0.19 µM (active)	0.164 µM (active)	0.843 µM (active)	0.11 µM (active)	0.12 µM (active)	0.475 µM (active)	0.0553 µM (active)	0.0169 µM (active)				
Cc1cc(Cl)ccc1NC(=O)CCCC(=O)C(C(=O)c1ccccc1)c1ccccc1 (stereo not given)			> 100	> 100 µM (inactive)	> 100 µM (inactive)	> 100 µM (inactive)	> 100 µM (inactive)	> 100 µM (inactive)				> 100 µM (inactive)	> 100 µM (inactive)		> 100 µM (inactive)		> 100 µM (inactive)	> 100 µM (inactive)	> 100 µM (inactive)	
COC(=O)C1=C(C(=O)OC)SC(=C(/N=N/c2ccccc2)c2ccccc2)S1	> 100 µM (inactive)	> 100 µM (inactive)	> 100	> 100 µM (inactive)	> 100 µM (inactive)	> 100 µM (inactive)	> 100 µM (inactive)	> 100 µM (inactive)			> 100 µM (inactive)	> 100 µM (inactive)	> 100 µM (inactive)	> 100 µM (inactive)	83.6 µM (inactive)	> 100 µM (inactive)	> 100 µM (inactive)	> 100 µM (inactive)		
CCC1(C)N=c2c(ncn2N=C(C)C)=C(C(N)=O)N1 (stereo not given)	> 100 µM (inactive)	> 100 µM (inactive)	> 100	> 100 µM (inactive)	0.426 µM (active)	> 100 µM (inactive)	> 100 µM (inactive)	> 100 µM (inactive)	> 100 µM (inactive)	> 100 µM (inactive)	> 100 µM (inactive)	> 100 µM (inactive)	> 100 µM (inactive)	> 100 µM (inactive)	> 100 µM (inactive)	> 100 µM (inactive)				
O=C1c2cccc3c2C(=O)c2c(cccc21)OCCOCCOCCOCCO3	14.2 µM (inactive)	> 100 µM (inactive)	> 100	> 100 µM (inactive)		> 100 µM (inactive)	74.5 µM (inactive)	> 100 µM (inactive)		78.2 µM (inactive)	> 100 µM (inactive)	> 100 µM (inactive)	78.2 µM (inactive)	34.2 µM (inactive)	> 100 µM (inactive)	> 100 µM (inactive)	> 100 µM (inactive)	> 100 µM (inactive)	86.1 µM (inactive)	
CCOC(=O)Nc1ccc(S(=O)(=O)OC)cc1.CCOC(=O)Nc1ccc(S(=O)(=O)OC)cc1.NC(=O)NCCO	> 50 µM (inactive)	> 50 µM (inactive)	21.6	> 50 µM (inactive)	> 50 µM (inactive)	> 50 µM (inactive)	16.7 µM (inactive)	> 50 µM (inactive)		> 50 µM (inactive)	> 50 µM (inactive)	> 50 µM (inactive)	21.3 µM (inactive)	> 50 µM (inactive)	> 50 µM (inactive)	28.8 µM (inactive)	29.9 µM (inactive)	> 50 µM (inactive)	22.1 µM (inactive)	
